Data: patent US10738080B2, “Inhibitors of beta integrin-G protein alpha subunit binding interactions” (priority 2010, dated 2020)
Entries after “also recorded” stand apart in the source; their conditions may differ. Where two headings read alike, the source gives them in different places. No end group written: not given here. *: point of attachment. Myristoyl = CCCCCCCCCCCCCC(=O)*

How the values were obtained:
c-Src = settings: human platelets adherent to fibrinogen
Description: (FIG. 3A) Washed human platelets pre-treated with DMSO, mSRI, or scrambled control peptide were allowed to adhere to fibrinogen and then solubilized at indicated time points. Proteins from lysates were immunoblotted with antibodies to c-Src phosphorylated at Tyr^416, c-Src, or RhoA. GTP-bound RhoA was measured by association with GST-RBD beads (25). See FIG. S4 for quantitative data. (FIG. 3B) Spreading of platelets treated with 0.1% DMSO, scrambled control peptide, or mSRI, in the absence or presence of C3 toxin, Y27632, or 0.01 U/ml thrombin. Platelets were stained with Alexa Fluor 546-conjugated phalloidin.
(FIG. 13A) Platelets were treated with 500 μM control peptide, mP13, mP7, or mP5 peptides, then immunoprecipitated with anti-Gα13 antibody or equal amount of control rabbit IgG. Lysates and immunoprecipitates were immunoblotted with anti-Gα13 or anti-β3 (MAb15) antibody. (FIG. 13B) Human platelets treated with DMSO, Myr-Scrambled peptide or mP5 peptide were allowed to adhere to immobilized fibrinogen, solubilized and analyzed for RhoA activation and c-Src Tyr^416 phosphorylation. (FIG. 13C) Confocal microscopy images of platelets treated with DMSO, Myristoylated Scrambled peptides, and mP5 peptide treated platelets adherent on fibrinogen for 30 minutes, without or with Rho kinase inhibitor Y27632. Merged […] (green) fluorescence and Alexa Fluor 546-conjugated phalloidin (red) fluorescence. (FIG. 13D) Flow cytometry analysis of PAR4AP (50 μM)-induced Oregon-green labelled fibrinogen binding to human platelets pre-treated with DMSO, 250 μM Myr-Scrambled peptide or 250 μM mP5 peptide. (FIG. 13E) Platelets were preincubated with mP5 or scrambled control peptides and then stimulated with thrombin in a platelet aggregometer at 37° C. Platelet aggregation traces were recorded.
Western blot bands were scanned, and analyzed for uncalibrated optical density using NIH Image J software. Student t-test was used to determine statistical significance.

[1] = system: human platelet-rich plasma; settings: 250 μM peptide
Description: Studies using human platelets were approved by the Institutional Review Board of University of Illinois at Chicago. […] Clot retraction was analyzed with the previously described method (S6, S7). Briefly, mouse platelets (6×10^8/ml) were resuspended in platelet-depleted human plasma, and 0.4 U/ml α-thrombin was added to initiate coagulation. The clots were photographed at various time points. Sizes of retracted clots on photographs were quantified using NIH Image J software. Statistical significance was determined using t-test.
Clot Retraction Assays were carried out as follows: Similar as described before(2, 3), freshly prepared human whole blood was citrated with 1/10 volume of 3.8% sodium citrate. After centrifugation at 1300 rpm for 22 min with break, platelet rich plasma (PRP) was collected. Pre-incubated of PRP with 0.05% DMSO (vehicle), 250 μM mP5 peptide, 250 μM mP13 peptide, or their corresponding scrambled control peptides mP5Scr or mP13Scr for 5 minutes at room temperature. After that, 0.5 U/ml thrombin was added into PRP and mixed gently. The clots were formed and allowed to retract at 37° C. incubator with CO2 and were photographed at various times. The two-dimensional sizes of retracted clots on photographs were quantified using Image J software and were expressed as clot size. Statistical significance was determined using a t test (n=3).

human platelets [2] = settings: resting platelets, 250 μM peptide
Description: Platelet Adhesion Assays were carried out as follows: As described before(6), microtiter wells were coated with 30 μg/ml fibrinogen in PBS overnight. Washed human platelets in modified Tyrode's buffer in the absence or presence of 1 mM MnCl2 were incubated in the microtiter wells for one hour at 37° C. in a CO2 incubator. After 3 washes, 50 μl of reaction buffer (0.3% p-nitrophenyl phosphate (Sigma) in 1% Triton-X-100, 50 mM sodium acetate, pH 5.0) was added into each microtiter well and incubated at 37° C. for one hour. The reaction was stopped by adding 50 μl of 1 M NaOH. Results were determined by reading OD at 405 nm wave length. The percentage of platelet adhesion was estimated from the ratio of the readings of adherent platelets to that of total platelets. Statistic significance was determined using t test (n=3).

RhoA = RhoA activity assay (GST-RBD pull down) in platelets; assay type: cell-based, human; settings: human platelets adherent to fibrinogen
Description: Platelets in modified Tyrode's buffer or adherent on immobilized fibrinogen were lysed quickly in 0.8 ml lysis buffer (50 mM Tris, pH 7.4, 10 mM MgCl2, 500 mM NaCl, 1% Triton X-100, 0.1% SDS, 0.5% deoxycholate, 10 μg/ml each of aprotinin and leupeptin, 1 mM phenylmethylsulfonyl fluoride, and 200 μM sodium vanadate). Lysates were cleared by centrifugation at 18,000 g for 2 minutes at 4° C., and the supernatant was incubated for 1 hour with 30 μg purified GST-Rhotekin RhoA-binding domain fusion protein (GST-RBD) bound to glutathione-Sepharose beads (S10). Samples were washed three times using washing buffer (50 mM Tris, pH 7.4, 10 mM MgCl2, 150 mM NaCl, 1% Triton X-100) and then immunoblotted with an anti-RhoA monoclonal antibody. Cell lysates were also immunoblotted with anti-RhoA as loading control.

human platelets [3] = assay type: cell-based; settings: for integrin outside-in signaling (early phase): human platelets on fibrinogen, 250 μM peptide; for platelet spreading on fibrinogen: human platelets, immobilized fibrinogen
Description: The clots were photographed at various time points. […] Statistical significance was determined using t-test.
Studies using human platelets were approved by institutional review board of University of Illinois at Chicago.
Coverslides were pre-coated with 100 μg/ml fibrinogen and blocked with 5% BSA in PBS. 300 μl αIIbβ3-expressing CHO cells (expressing WT or mutant integrins; 1×10^5/ml) or platelets (1×10^7/ml) suspended in Tyrode's buffer were added to coverslides and incubated at 37° C. for various lengths of time. Cells were fixed with 4% paraformaldehyde (PFA) for 10 minutes and permeabilized with 0.1% Triton X-100 in PBS for 2 minutes. After blocking with 5% BSA for 10 minutes, coverslides were incubated with 0.2 μg/ml mAb 15, or Alexa Fluor-546 conjugated phalloidin. For mouse platelets re-express wild type β3 or the AAA mutant of β3, β3 was immuno-stained with the anti-β3 monoclonal antibody MAb 15 and Alexa Fluor-546 conjugated phalloidin. The slides were scanned with a Zeiss LSM5 10 META confocal microscope as previously described^11

Substance: Myr-EEERA [mP5]
- integrin-dependent phosphorylation of c-Src Tyr416 (c-Src activation) (c-Src): inhibited
- integrin-dependent phosphorylation of c-Src Tyr416 (c-Src activation) (c-Src; listed as Myr-P5): decreased
- clot retraction [1]: accelerated
- platelet adhesion to immobilized fibrinogen (human platelets [2]): nor does it affect
- RhoA activation (RhoA activity) (RhoA): increased
- c-Src-dependent transient RhoA inhibition (RhoA): inhibited
- integrin outside-in signaling (early phase) (human platelets [3]): selectively inhibited
- platelet spreading on fibrinogen (human platelets [3]): abolished; also recorded: inhibited
- platelet spreading on fibrinogen (human platelets [3]; listed as Myr-P5): inhibited

Substance: Myristoyl-KFEEERARAKWDT [mP13]
- integrin-dependent phosphorylation of c-Src Tyr416 (c-Src activation) (c-Src): inhibited
- clot retraction [1]: inhibited
- platelet adhesion to immobilized fibrinogen (human platelets [2]): inhibited
- c-Src-dependent transient RhoA inhibition (RhoA): inhibited
- integrin outside-in signaling (early phase) (human platelets [3]): inhibited
- platelet spreading on fibrinogen (human platelets [3]): abolished

Substance: Myristoyl-LLARRPTKGIHEY [mSRI]
- integrin-dependent phosphorylation of c-Src Tyr416 (c-Src activation) (c-Src): inhibited
- clot retraction [1]: accelerated
- RhoA activation (RhoA activity) (RhoA): accelerated
- thrombin-promoted platelet spreading (human platelets [3]; 0.01 U/ml thrombin): abolished
- platelet spreading on fibrinogen (human platelets [3]): inhibited

Substance: Myristoyl-KFEEERA [mP7]
- integrin-dependent phosphorylation of c-Src Tyr416 (c-Src activation) (c-Src): inhibited
- c-Src-dependent transient RhoA inhibition (RhoA): inhibited
- platelet spreading on fibrinogen (human platelets [3]): abolished
